Results on 25 molecules are retold here after US8796247B2, “Indole derivative, and pharmacologically acceptable salt thereof” (Kissei Pharmaceutical Co., Ltd., priority 2011, dated 2014).

This assay has as its target T1, rat EP1 receptor (Rattus norvegicus, UniProt P70597).
T1 construct: expressed in transfected cells; host or cells: COS-1 cells, transient transfection with Lipofectamine 2000
T1 sequence (P70597 1-405): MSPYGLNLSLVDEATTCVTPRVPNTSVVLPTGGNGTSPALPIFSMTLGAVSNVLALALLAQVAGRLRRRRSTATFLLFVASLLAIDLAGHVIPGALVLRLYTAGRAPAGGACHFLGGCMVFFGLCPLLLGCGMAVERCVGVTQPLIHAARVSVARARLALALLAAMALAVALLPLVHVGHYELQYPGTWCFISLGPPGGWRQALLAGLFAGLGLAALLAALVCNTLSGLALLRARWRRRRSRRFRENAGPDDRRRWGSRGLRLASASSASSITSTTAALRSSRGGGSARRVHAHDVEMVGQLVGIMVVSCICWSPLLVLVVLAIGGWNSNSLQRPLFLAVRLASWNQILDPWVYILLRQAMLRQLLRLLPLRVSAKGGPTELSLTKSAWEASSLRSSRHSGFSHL
The experiment in a line: Test for confirmation of EP1 receptor antagonism: inhibition of prostaglandin E2-induced increase in intracellular calcium concentration in rat EP1 receptor-expressing COS-1 cells. It is filed as cell-based. As to conditions: prostaglandin E2 10 nM, intracellular calcium fluorescence signal. On the procedure:
Test for Confirmation of EP1 Receptor Antagonism
(1) Preparation of Rat EP1 Expression Vector
Using Rat Kidney BD Marathon-Ready cDNA (Nippon Becton Dickinson Company, Ltd.) as a template, and using a forward primer shown in (SEQ ID NO:1) and a reverse primer shown in (SEQ ID NO:2), a first run of PCR was carried out using KOD-Plus-Ver 2.0 (Toyobo Co., Ltd.). Further, using this amplification product as a template, and using a forward primer shown in (SEQ ID NO:3) and a reverse primer shown in (SEQ ID NO:4), a second run of PCR was carried out in the same manner. The amplification product obtained by the second run of PCR was incorporated into a vector (pcDNA3.1 D/V5-His-TOPO (registered trademark), Invitrogen Japan K. K.). By a conventional method, the vector containing this amplification product was introduced into E. coli (One Shot TOP10 Competent Cells, Invitrogen Corporation) and transformed. This transformed E. coli was cultured in an LB agar medium for one day. After the culture, colonies were selected and cultured in an LB liquid medium containing 50 μg/mL of ampicillin. After the culture, the vector was purified using a QIAprep Spin Miniprep Kit (Qiagen K. K.). The base sequence of the insertion site of this vector (SEQ ID NO:5) was compared with the rat EP1 base sequence (Ptger1) registered as Accession No. NM_013100 in a publicly-known database (NCBI), and as a result, the base sequences completely matched except for a single base. Further, the amino acid sequence translated by the base sequence completely matched the amino acid sequence of the rat EP1 receptor registered as an NCBI Accession No. NP_037232. Therefore, it was confirmed that the cloned gene sequence was a base sequence of the rat EP1 receptor and the obtained amino acid sequence was that of the rat EP1 receptor. The pcDNA3.1 D/V5-His-TOPO (registered trademark) into which the nucleic acid shown in (SEQ ID NO:5) had been inserted was taken as a rat EP1-expressing vector.
(2) Preparation of Rat EP1 Receptor-Expressing Cells
COS-1 cells (Dainippon Sumitomo Pharma Co., Ltd.) were cultured until they reached confluence in an incubator at 37° C. under a 5% CO2 gas condition, using a D-MEM liquid medium (high glucose and L-glutamine contained, Invitrogen Corporation) to which a penicillin-streptomycin solution (Invitrogen Corporation, final concentration: 100 U/mL as benzylpenicillin; 100 μg/mL as streptomycin) as an antibiotic, MEM nonessential amino acids (Invitrogen Corporation, final concentration: 0.1 mM), and fetal calf serum (Sanko Junyaku Co., Ltd., final concentration: 10%) were added.
(2-2) COS-1 Cell Subculture
The cells that had reached confluence were stripped with 0.05% trypsin/0.53 mM EDTA•4Na (Invitrogen Japan K. K.) and resuspended in the liquid medium. The resuspended cells were diluted and cultured in the liquid medium at a spread ratio from 1:4 to 1:8.
(2-3) Preparation of Cells for Introduction of Rat EP1-Expressing Vector
The cells that had reached confluence were stripped with 0.05% trypsin/0.53 mM EDTA•4Na, and resuspended in a D-MEM liquid medium (high glucose and L-glutamine contained, Invitrogen Corporation) to which MEM nonessential amino acids (final concentration: 0.1 mM) and fetal calf serum (final concentration: 10%) were added. In each well of a Poly D-lysine-coated 96-well microplate (BD BioCoat (registered trademark), Nippon Becton Dickinson Company, Ltd.), this resuspended cell suspension culture was prepared to be 5×10^4 cells/well in 100 μL of the liquid medium, and 100 μL of the cell suspension was dispensed and seeded in each well. After seeding, the cells were cultured in an incubator at 37° C. under a 5% CO2 gas condition. Once the cells for introduction of a rat EP1-expressing vector were adhered (about 2 hours after seeding), introduction of the rat EP1-expressing vector was carried out in the following order.
(2-4) Introduction of Rat EP1-Expressing Vector […]
For `CCCS(=O)(=O)NC(=O)c1cccc(Cn2c(-c3ccccc3)cc3cc(OC)c(F)cc32)n1` [Example 4-22, 6-(6-fluoro-5-methoxy-2-phenylindol-1-ylmethyl)-N-(propane-1-sulfonyl)pyridine-2-carboxamide], the IC50 is 59 nM.

For `COc1cc2cc(-c3ccccc3)n(Cc3cccc(-c4nnn[nH]4)n3)c2cc1Cl` [Example 2-3, 6-chloro-5-methoxy-2-phenyl-1-[6-(1H-1,2,3,4-tetrazol-5-yl)pyridin-2-ylmethyl]-1H-indole], the IC50 worked out at 67 nM.

As for `COc1ccc2c(c1)cc(-c1ccccc1)n2Cc1ccc(-c2nnn[nH]2)o1` [Example 2-2, 5-methoxy-2-phenyl-1-[5-(1H-1,2,3,4-tetrazol-5-yl)furan-2-ylmethyl]-1H-indole], the IC50 was 42 nM. Regarding `COc1cc2cc(-c3ccccc3)n(Cc3cccc(-c4noc(=O)[nH]4)n3)c2cc1F` [Example 6-6, 3-[6-(6-fluoro-5-methoxy-2-phenylindol-1-ylmethyl)pyridin-2-yl]-4,5-dihydro-1,2,4-oxadiazol-5-one], the IC50 turned out to be 22 nM. Consider `COc1cc2cc(-c3ccccc3)n(Cc3cccc(C(=O)NS(=O)(=O)C4CC4)n3)c2cc1F` [Example 4-23, N-(cyclopropanesulfonyl)-6-(6-fluoro-5-methoxy-2-phenylindol-1-ylmethyl)pyridine-2-carboxamide], for which the IC50 turned out to be 28 nM. Take `CCC(C)c1cc2cc(OC)ccc2n1Cc1cccc(C(=O)NS(=O)(=O)C2CC2)n1` (stereo not shown) [Example 4-18, 6-[2-(butan-2-yl)-5-methoxyindol-1-ylmethyl]-N-(cyclopropanesulfonyl)pyridine-2-carboxamide]: the IC50 was determined as 31 nM. The figure for `COc1cc2cc(-c3ccccc3)n(Cc3cccc(C(=O)NS(C)(=O)=O)n3)c2cc1F` [Example 4-19, 6-(6-fluoro-5-methoxy-2-phenylindol-1-ylmethyl)-N-(methanesulfonyl)pyridine-2-carboxamide] is 60 nM; for `CCS(=O)(=O)NC(=O)c1cccc(Cn2c(-c3ccccc3)cc3cc(OC)c(F)cc32)n1` [Example 4-20, N-(ethanesulfonyl)-6-(6-fluoro-5-methoxy-2-phenylindol-1-ylmethyl)pyridine-2-carboxamide] it is 40 nM.

`CCS(=O)(=O)NC(=O)c1cccc(Cn2c(-c3ccccc3)cc3cc(OC)ccc32)n1` [Example 1-12, N-(ethanesulfonyl)-6-(5-methoxy-2-phenylindol-1-ylmethyl)pyridine-2-carboxamide]: the IC50 is 81 nM. For the molecule `CCCS(=O)(=O)NC(=O)c1cccc(Cn2c(-c3ccccc3)cc3cc(OC)ccc32)n1` [Example 4-12, 6-(5-methoxy-2-phenylindol-1-ylmethyl)-N-(propane-1-sulfonyl)pyridine-2-carboxamide], the IC50 is 30 nM. Regarding `CCS(=O)(=O)NC(=O)c1cccc(Cn2c(-c3cc(F)ccc3F)cc3cc(OC)ccc32)n1` [Example 4-5, 6-[2-(2,5-difluorophenyl)-5-methoxyindol-1-ylmethyl]-N-(ethanesulfonyl)pyridine-2-carboxamide], the IC50 was 47 nM. Regarding `COc1ccc2c(c1)cc(C1(C)CC1)n2Cc1ccc(-c2nnn[nH]2)o1` [Example 5-7, 5-methoxy-2-(1-methylcyclopropyl)-1-[5-(1H-1,2,3,4-tetrazol-5-yl)furan-2-ylmethyl]-1H-indole], the IC50 came out at 64 nM.

On to `COc1cc2cc(-c3ccsc3)n(Cc3cccc(-c4nnn[nH]4)n3)c2cc1F` [Example 2-4, 6-fluoro-5-methoxy-1-[6-(1H-1,2,3,4-tetrazol-5-yl)pyridin-2-ylmethyl]-2-(thiophen-3-yl)-1H-indole], for which the IC50 is 32 nM. Take `CCC(C)c1cc2cc(OC)ccc2n1Cc1cccc(C(=O)NS(=O)(=O)CC)n1` (stereo not shown) [Example 4-10, 6-[2-(butan-2-yl)-5-methoxyindol-1-ylmethyl]-N-(ethanesulfonyl)pyridine-2-carboxamide]: the IC50 was found to be 46 nM. Take `CCC(C)c1cc2cc(OC)ccc2n1Cc1cccc(C(=O)NS(=O)(=O)C(C)C)n1` (stereo not shown) [Example 4-17, 6-[2-(butan-2-yl)-5-methoxyindol-1-ylmethyl]-N-(propane-2-sulfonyl)pyridine-2-carboxamide]: the IC50 stood at 49 nM. Consider `CCC(C)c1cc2cc(OC)ccc2n1Cc1cccc(-c2nnn[nH]2)n1` (stereo not shown) [Example 5-1, 2-(butan-2-yl)-5-methoxy-1-[6-(1H-1,2,3,4-tetrazol-5-yl)pyridin-2-ylmethyl]-1H-indole], for which the half-inhibitory concentration (IC50) was 23 nM. For the molecule `CCC(C)c1cc2cc(OC)c(Cl)cc2n1Cc1cccc(C(=O)NS(=O)(=O)CC)n1` (stereo not shown) [Example 4-2, 6-[2-(butan-2-yl)-6-chloro-5-methoxyindol-1-ylmethyl]-N-(ethanesulfonyl)pyridine-2-carboxamide], the IC50 is 31 nM. `COc1cc2cc(-c3ccccc3)n(Cc3cccc(-c4nnn[nH]4)n3)c2cc1F` [Example 5-3, 6-fluoro-5-methoxy-2-phenyl-1-[6-(1H-1,2,3,4-tetrazol-5-yl)pyridin-2-ylmethyl]-1H-indole]: the IC50 was determined as 31 nM.

For the molecule `COc1ccc2c(c1)cc(-c1ccccc1)n2Cc1cccc(C(=O)NS(=O)(=O)C2CC2)n1` [Example 4-14, N-(cyclopropanesulfonyl)-6-(5-methoxy-2-phenylindol-1-ylmethyl)pyridine-2-carboxamide], the IC50 was 63 nM. On to `CCCS(=O)(=O)NC(=O)c1cccc(Cn2c(C(C)CC)cc3cc(OC)ccc32)n1` (stereo not shown) [Example 4-16, 6-[2-(butan-2-yl)-5-methoxyindol-1-ylmethyl]-N-(propane-1-sulfonyl)pyridine-2-carboxamide], for which the IC50 was found to be 43 nM. Regarding `COc1ccc2c(c1)cc(-c1ccccc1)n2Cc1cccc(C(=O)NS(=O)(=O)C(C)C)n1` [Example 4-13, 6-(5-methoxy-2-phenylindol-1-ylmethyl)-N-(propane-2-sulfonyl)pyridine-2-carboxamide], the IC50 is 37 nM.

Turning to `COc1cc2cc(-c3ccoc3)n(Cc3cccc(-c4nnn[nH]4)n3)c2cc1Cl` [Example 5-4, 6-chloro-2-(furan-3-yl)-5-methoxy-1-[6-(1H-1,2,3,4-tetrazol-5-yl)pyridin-2-ylmethyl]-1H-indole], the IC50 was determined as 35 nM.

`COc1cc2cc(-c3ccccc3)n(Cc3cccc(C(=O)NC#N)n3)c2cc1F` [Example 8-7, N-cyano-6-(6-fluoro-5-methoxy-2-phenylindol-1-ylmethyl)pyridine-2-carboxamide]: the IC50 is 97 nM. For the molecule `COc1cc2cc(C3(C)CC3)n(Cc3cccc(-c4nnn[nH]4)n3)c2cc1Cl` [Example 5-6, 6-chloro-5-methoxy-2-(1-methylcyclopropyl)-1-[6-(1H-1,2,3,4-tetrazol-5-yl)pyridin-2-ylmethyl]-1H-indole], the IC50 turned out to be 33 nM. The figure for `COc1cc2cc(-c3ccsc3)n(Cc3cccc(C(=O)NS(C)(=O)=O)n3)c2cc1F` [Example 1-5, 6-[6-fluoro-5-methoxy-2-(thiophen-3-yl)indol-1-ylmethyl]-N-(methanesulfonyl)pyridine-2-carboxamide] is 49 nM.
